Results published in ChEMBL document CHEMBL1201862, “PubChem BioAssay data set” (2004).
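Step 1: Grow cells in 96-well plates. Step 2: Expose to compound for 48 hours at 5 concentrations. Step 3: Interpolate endpoints linearly; if unreached, use highest concentration. GI50 marks 50% less growth.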 Activity calls are given as the source filed them. No stated cut-off is given here; in the data, active = GI50 up to about 1.1 µM and inactive = higher.

Columns and labels:
Test in all cases: NCI anticancer screen, dose series, 48 h
[1] = test system: SK-MEL-2
[2] = test system: NCI-H522
[3] = test system: CAKI-1
[4] = test system: SK-MEL-28
[5] = test system: SNB-19
[6] = test system: OVCAR-5
[7] = test system: A498
[8] = test system: M14
[9] = test system: SNB-75
[10] = test system: ACHN
[11] = test system: NCI-H23
[12] = test system: UACC-62
[13] = test system: HOP-92
[14] = test system: HL-60
[15] = test system: SR

Structure (SMILES)	GI50 [1]	GI50 [2]	GI50 [3]	GI50 [4]	GI50 [5]	GI50 [6]	GI50 [7]	GI50 [8]	GI50 [9]	GI50 [10]	GI50 [11]	GI50 [12]	GI50 [13]	GI50 [14]	GI50 [15]
O=C(O)c1cc(-c2ccccc2O)nc2ccccc12	> 100 µM (inactive)	> 100 µM (inactive)	> 100 µM (inactive)	> 100 µM (inactive)	> 100 µM (inactive)	> 100 µM (inactive)	> 100 µM (inactive)	> 100 µM (inactive)	> 100 µM (inactive)	> 100 µM (inactive)	> 100 µM (inactive)	> 100 µM (inactive)	–	–	–
Cc1ccc(C(=O)NC(C)C)cc1/N=N/N(C)C	> 100 µM (inactive)	> 100 µM (inactive)	> 100 µM (inactive)	> 100 µM (inactive)	> 100 µM (inactive)	–	–	> 100 µM (inactive)	–	> 100 µM (inactive)	> 100 µM (inactive)	> 100 µM (inactive)	> 100 µM (inactive)	–	–
Oc1ccc(O)c(-n2cccn2)c1	37 µM (inactive)	16.6 µM (inactive)	19.1 µM (inactive)	> 100 µM (inactive)	> 100 µM (inactive)	88.9 µM (inactive)	> 100 µM (inactive)	> 100 µM (inactive)	> 100 µM (inactive)	> 100 µM (inactive)	> 100 µM (inactive)	50.4 µM (inactive)	45.9 µM (inactive)	18.7 µM (inactive)	–
CC(=O)O[C@H]1CCN2C(=O)C=CC(OCc3ccccc3)C12 (stereo partly specified)	> 100 µM (inactive)	–	> 100 µM (inactive)	> 100 µM (inactive)	–	> 100 µM (inactive)	> 100 µM (inactive)	> 100 µM (inactive)	> 100 µM (inactive)	> 100 µM (inactive)	> 100 µM (inactive)	> 100 µM (inactive)	> 100 µM (inactive)	> 100 µM (inactive)	–
CCOC(=O)C(=O)Nc1nc2c(OCC)cccc2s1	> 100 µM (inactive)	> 100 µM (inactive)	> 100 µM (inactive)	> 100 µM (inactive)	> 100 µM (inactive)	> 100 µM (inactive)	> 100 µM (inactive)	> 100 µM (inactive)	> 100 µM (inactive)	> 100 µM (inactive)	> 100 µM (inactive)	> 100 µM (inactive)	> 100 µM (inactive)	> 100 µM (inactive)	–
N#CC(/C(=N/NC(=O)C(=O)NN)C(=O)Nc1nc([N+](=O)[O-])cs1)c1ccc(Cl)cc1 (stereo unspecified)	> 100 µM (inactive)	–	–	> 100 µM (inactive)	> 100 µM (inactive)	> 100 µM (inactive)	–	> 100 µM (inactive)	> 100 µM (inactive)	> 100 µM (inactive)	> 100 µM (inactive)	56.5 µM (inactive)	> 100 µM (inactive)	> 100 µM (inactive)	–
O=C(Nc1cccc(NC(=O)c2cc(=O)c3ccccc3o2)n1)c1cc(=O)c2ccccc2o1	> 100 µM (inactive)	15 µM (inactive)	> 100 µM (inactive)	62.4 µM (inactive)	68.9 µM (inactive)	> 100 µM (inactive)	75.5 µM (inactive)	12.3 µM (inactive)	38.8 µM (inactive)	8.32 µM (inactive)	20.1 µM (inactive)	6.75 µM (inactive)	17.3 µM (inactive)	32.3 µM (inactive)	–
O=C(c1ccccc1)C(c1ccccc1)C1(O)C(=O)Nc2ccccc21 (stereo unspecified)	> 100 µM (inactive)	> 100 µM (inactive)	> 100 µM (inactive)	> 100 µM (inactive)	> 100 µM (inactive)	> 100 µM (inactive)	> 100 µM (inactive)	> 100 µM (inactive)	43.6 µM (inactive)	> 100 µM (inactive)	> 100 µM (inactive)	> 100 µM (inactive)	> 100 µM (inactive)	> 100 µM (inactive)	–
Cn1c(N)c(-c2c3ccccc3nc3ccccc23)c(=O)n(C)c1=O	> 100 µM (inactive)	> 100 µM (inactive)	> 100 µM (inactive)	> 100 µM (inactive)	–	> 100 µM (inactive)	> 100 µM (inactive)	> 100 µM (inactive)	–	–	> 100 µM (inactive)	> 100 µM (inactive)	> 100 µM (inactive)	> 100 µM (inactive)	–
CC1=C2CCCC2=C/C(=N/Nc2ccc([N+](=O)[O-])cc2[N+](=O)[O-])CC1	27.9 µM (inactive)	> 100 µM (inactive)	> 100 µM (inactive)	> 100 µM (inactive)	> 100 µM (inactive)	> 100 µM (inactive)	–	> 100 µM (inactive)	45.2 µM (inactive)	> 100 µM (inactive)	> 100 µM (inactive)	> 100 µM (inactive)	> 100 µM (inactive)	> 100 µM (inactive)	> 100 µM (inactive)
CCOC(=O)CC1NC(=O)CS1 (stereo unspecified)	–	–	> 100 µM (inactive)	> 100 µM (inactive)	> 100 µM (inactive)	> 100 µM (inactive)	> 100 µM (inactive)	> 100 µM (inactive)	> 100 µM (inactive)	> 100 µM (inactive)	> 100 µM (inactive)	> 100 µM (inactive)	> 100 µM (inactive)	> 100 µM (inactive)	–
Cc1ccc(S(=O)(=O)n2cc(/C=C/C#N)c(/C=C/C#N)c2)cc1	74.3 µM (inactive)	> 10 µM (inactive)	–	> 100 µM (inactive)	57.9 µM (inactive)	> 100 µM (inactive)	50.5 µM (inactive)	89.7 µM (inactive)	29.8 µM (inactive)	72.8 µM (inactive)	96.6 µM (inactive)	48.9 µM (inactive)	24.8 µM (inactive)	25.5 µM (inactive)	–
C#CCN(C)C(=O)N(CC#C)N=O	> 100 µM (inactive)	> 100 µM (inactive)	–	> 100 µM (inactive)	> 100 µM (inactive)	29.5 µM (inactive)	> 100 µM (inactive)	> 100 µM (inactive)	> 100 µM (inactive)	> 100 µM (inactive)	> 100 µM (inactive)	> 100 µM (inactive)	> 100 µM (inactive)	> 100 µM (inactive)	–
COc1ccc(CNc2nc3ccccc3nc2-c2cccs2)cc1OC	63.7 µM (inactive)	–	–	84.5 µM (inactive)	> 100 µM (inactive)	> 100 µM (inactive)	–	–	–	23.1 µM (inactive)	25.2 µM (inactive)	–	13.4 µM (inactive)	22 µM (inactive)	15.5 µM (inactive)
CN(C)CCNC(=O)c1cccc2c1nc(-c1ccccc1)c1ccccc12	11.1 µM (inactive)	–	3.74 µM (inactive)	9.1 µM (inactive)	11.3 µM (inactive)	4.66 µM (inactive)	0.91 µM (active)	2.07 µM (inactive)	6.76 µM (inactive)	2.88 µM (inactive)	6.65 µM (inactive)	11.9 µM (inactive)	2.83 µM (inactive)	1.26 µM (inactive)	–
